Patent publication US20220133722A1, “PHARMACEUTICAL COMPOSITIONS” (QUE ONCOLOGY PTY LTD, priority 2019, published 2022)
Values joined by “and” are separate entries in the source; they are usually repeats but may differ in a detail not shown here. Equal entries are not always repeated. Where two headings read alike, the source gives them in different places.

Assay: Part 1 PK study: single oral 200 mg dose, fed (high-fat meal) versus fasted
Assay type: in vivo, human
Details: for Vd/F: read-out: Vz/F
Protocol: Part 1 involved analysing the PK parameters obtained following single oral administration of 200 mg tablets of a compound of formula (Ia) in free base form to 12 healthy female subjects following either fed (high-fat meal) or fasted conditions.
For Part 1 • Cmax maximum plasma concentration (observed) • Tmax time to reach the maximum plasma concentration (observed) • Clast last observed quantifiable concentration in plasma • Tlast time of last observed quantifiable concentration in plasma • AUC0-last area under the plasma concentration-time curve from time 0 to the time of the last quantifiable concentration • AUCinf area under the plasma concentration-time curve from time 0 to infinite time, calculated as the sum of AUClast and Clast/kel • % AUCexp percent of AUC extrapolated between AUC0-last and AUCinf • kel apparent terminal elimination rate constant • t1/2 elimination half-life associated with the terminal slope (kel) of the semilogarithmic drug concentration-time curve, calculated as 0.693/kel • CL/F apparent total body clearance of a drug from the plasma calculated by: CL/F=Dose/AUCinf • Vz/F apparent volume of distribution at steady state calculated by: V/F=[…]
An initial dose was administered on Day 1 followed by collection of samples for PK analysis for 96 hours. PK blood samples were taken pre-dose and 0.25, 0.5, 1.0, 1.5, 2, 3, 4, 8, 10, 12, 16, 24, 36, 48, 60, 72 and 96 hours post-dose, and urine samples were taken at 0-4, 4-8, 8-12, 12-24 and 24-48 hours. Ten days after the initial dose of study drug (Day 11), a second dose of drug was administered followed by collection of PK samples. Subjects completed the End-of-Study Visit (EOS) on Day 18, 7 days after the last dose of study drug.
Subjects selected for participation checked into the clinical unit and were randomized (on the morning of Day 1) to food state for study treatment; one half received study drug in the fed state first followed by fasted state for the second dose while the other half received study drug in the fasted state first followed by fed state. Prior to dosing on Day 1, all subjects fasted for a minimum of 10 hours overnight. On the morning of Day 1, subjects dosed in the fed state received the study drug within 10 min of completing a high fat breakfast. […] Plasma and urine samples were collected as set out above for the PK analysis. Subjects remained in the clinic for study procedures and blood draws before checking out after completion of study procedures on the morning of Day 4 (i.e., 72 hours post-dose) returning for the final PK blood draw on Day 5 at 96 hr post-dose. After the first single dose of study drug, subjects completed a 10-day washout period, returning to the clinical unit for check-in on Day 10. Subjects fasted overnight, receiving the second dose of study drug in the fed or fasted state on the morning of Day 11. Subjects were discharged from the clinic after the collection of the final 72-hr PK sample returning the next day for the 96 hr blood draw.
For both Parts 1 and 2, samples were processed and analysed as follows. The method extracted Q-122 and the Internal Standard (IS, Q-122 ^13C4) from human plasma using protein precipitation extraction.
The analytes were separated by HPLC on a Phenomenex Synergi Polar-RP column, and the eluates monitored by an API4000 MS/MS detector in positive MRM mode. The extract was then assayed against a calibration curve. The data were acquired and processed by the data acquisition system Analyst® (Sciex) linked directly to the API4000 MS/MS detector and then processed in Watson LIMS™ (Thermo Scientific), where applicable. The method range is from 10.0 to 2500 ng/mL using 50 μL of matrix and has a run time of approximately 3.2 minutes per sample.
Plasma PK parameters for each dosing regimen and dose level were calculated from the concentrations of Q-122 and its major metabolites measured in pre-dose and post-dose plasma samples. […]

[1] = female, human, plasma, po, 200 mg, single oral 200 mg, fasted, mean
[2] = female, human, plasma, po, 200 mg, single oral 200 mg, fasted, median
[3] = female, human, plasma, po, 200 mg, single oral 200 mg, fed (high-fat meal), mean
[4] = female, human, plasma, po, 200 mg, single oral 200 mg, fed (high-fat meal), median
[5] = single dose 200 mg, fed versus fasted
[6] = single oral 200 mg, fasted, individual subjects
[7] = single oral 200 mg, fasted, max
[8] = single oral 200 mg, fasted, mean
[9] = single oral 200 mg, fasted, median
[10] = single oral 200 mg, fasted, min
[11] = single oral 200 mg, fed (high-fat meal), individual subjects
[12] = single oral 200 mg, fed (high-fat meal), max
[13] = single oral 200 mg, fed (high-fat meal), mean
[14] = single oral 200 mg, fed (high-fat meal), median
[15] = single oral 200 mg, fed (high-fat meal), min
[16] = single oral dose 200 mg, healthy subjects

c1cnc(NCc2ccc(CNc3ncccn3)cc2)nc1 [Q-122]
bioavailability with a fatty meal (200 mg, with fatty meal versus fasted): increase in bioavailability
Tmax (female, human, plasma, oral, 200 mg, single dose 200 mg, fasted, subject 101009 omitted, read-out: Tmax (range over subjects)): 0.5 to 2 h
Tmax (female, human, plasma, oral, 200 mg, single dose 200 mg, fasted, read-out: Tmax (range over subjects)): 0.5 to 8 h
Tmax (female, human, plasma, oral, 200 mg, single dose 200 mg, fed, read-out: Tmax (range over subjects)): 0.5 to 10 h
AUC(0-inf) [1]: 7380 ng·h/mL
AUC(0-t) [1]: 6400 ng·h/mL
half-life [1]: 21.4 h
Cmax (female, human, plasma, po, 200 mg, single oral 200 mg, fasted, mean, read-out: Cmax): 620 ng/mL
Tmax (female, human, plasma, po, 200 mg, single oral 200 mg, fasted, mean, read-out: Tmax): 1.75 h
Vd/F [1]: 874 L
AUC(0-inf) [2]: 7390 ng·h/mL
AUC(0-t) [2]: 6330 ng·h/mL
half-life [2]: 23 h
Cmax (female, human, plasma, po, 200 mg, single oral 200 mg, fasted, median, read-out: Cmax): 613 ng/mL
Tmax (female, human, plasma, po, 200 mg, single oral 200 mg, fasted, median, read-out: Tmax): 1.25 h
Vd/F [2]: 798 L
AUC(0-t) [3]: 10200 ng·h/mL
half-life [3]: 12.3 h
Cmax (female, human, plasma, po, 200 mg, single oral 200 mg, fed (high-fat meal), mean, read-out: Cmax): 987 ng/mL
Tmax (female, human, plasma, po, 200 mg, single oral 200 mg, fed (high-fat meal), mean, read-out: Tmax): 6.23 h
Vd/F [3]: 404 L
AUC(0-inf) [4]: 11800 ng·h/mL
AUC(0-t) [4]: 11300 ng·h/mL
half-life [4]: 8.98 h
Cmax (female, human, plasma, po, 200 mg, single oral 200 mg, fed (high-fat meal), median, read-out: Cmax): 929 ng/mL
Tmax (female, human, plasma, po, 200 mg, single oral 200 mg, fed (high-fat meal), median, read-out: Tmax): 8 h
Vd/F [4]: 233 L
increase in mean AUC after food [5]: 1.6 fold
increase in mean Cmax after food [5]: 1.6 fold
change of Cmax and AUC0-last following food (single dose 200 mg, fed versus fasted, per subject): approximately doubled in 6 out of 11 subjects
% AUCexp [6]: 4.3% and 10.3% and 9.1% (2×) and 2.7% and 13.4% and 12.6% and 11.3% and 30.9% and 5.9% and 3.1%
AUC0-last [6]: 5881.1 ng·h/mL and 9258.3 ng·h/mL and 7702.0 ng·h/mL and 8375.7 ng·h/mL and 4924.9 ng·h/mL and 5410.8 ng·h/mL and 6774.9 ng·h/mL and 3631.6 ng·h/mL and 5150.3 ng·h/mL and 9154.4 ng·h/mL and 6812.7 ng·h/mL and 3704.2 ng·h/mL
AUCinf [6]: 6144.8 ng·h/mL and 10317.1 ng·h/mL and 8470.5 ng·h/mL and 8608.7 ng·h/mL and 5415.4 ng·h/mL and 6250.2 ng·h/mL and 7756.0 ng·h/mL and 4092.4 ng·h/mL and 9726.1 ng·h/mL and 7031.1 ng·h/mL
Cl/F [6]: 32.55 L/h and 19.39 L/h and 23.61 L/h and 23.23 L/h and 36.93 L/h and 32.00 L/h and 25.79 L/h and 48.87 L/h and 20.56 L/h and 28.45 L/h
Clast [6]: 15.50 ng/mL and 26.40 ng/mL and 16.30 ng/mL (2×) and 11.70 ng/mL and 14.20 ng/mL and 22.40 ng/mL and 30.90 ng/mL and 17.70 ng/mL and 39.70 ng/mL and 11.40 ng/mL and 22.00 ng/mL
Cmax [6]: 611.00 ng/mL and 801.00 ng/mL and 676.00 ng/mL and 1010.00 ng/mL and 103.00 ng/mL and 516.00 ng/mL and 668.00 ng/mL and 403.00 ng/mL and 559.00 ng/mL and 1050.00 ng/mL and 615.00 ng/mL and 422.00 ng/mL
Tlast [6]: 48.00 h and 96.00 h (3×) and 60.00 h (5×) and 72.00 h (2×) and 24.00 h
Tmax [6]: 1.00 h and 1.50 h and 0.50 h
kel [6]: 0.059 1/h and 0.025 1/h and 0.021 1/h and 0.050 1/h and 0.029 1/h (2×) and 0.027 1/h and 0.031 1/h and 0.038 1/h and 0.052 1/h
t1/2 [6]: 11.79 h and 27.80 h and 32.68 h and 13.80 h and 23.94 h and 25.98 h and 22.01 h and 18.04 h and 24.31 h and 13.28 h
% AUCexp [7]: 30.9%
AUC0-last [7]: 9258.3 ng·h/mL
AUCinf [7]: 10317.1 ng·h/mL
Cl/F [7]: 48.87 L/h
Clast [7]: 39.70 ng/mL
Cmax [7]: 1050.00 ng/mL
Tlast [7]: 96.00 h
kel [7]: 0.059 h⁻¹
t1/2 [7]: 32.68 h
% AUCexp [8]: 10.23%
Cl/F [8]: 29.137 L/h
Clast [8]: 20.375 ng/mL
Tlast [8]: 67.000 h
kel [8]: 0.0361 h⁻¹
% AUCexp [9]: 9.07%
Cl/F [9]: 27.12 L/h
Clast [9]: 17.00 ng/mL
Tlast [9]: 60.00 h
kel [9]: 0.0302 h⁻¹
% AUCexp [10]: 2.7%
AUC0-last [10]: 3631.6 ng·h/mL
AUCinf [10]: 4092.4 ng·h/mL
Cl/F [10]: 19.39 L/h
Clast [10]: 11.40 ng/mL
Cmax [10]: 103.00 ng/mL
Tlast [10]: 24.00 h
Tmax [10]: 0.50 h
kel [10]: 0.021 h⁻¹
t1/2 [10]: 11.79 h
% AUCexp [11]: 0.8% and 4.7% and 7.5% and 2.0% and 1.3% and 5.9% and 1.6% (2×) and 1.7% and 0.9% and 1.5%
AUC0-last [11]: 11087.2 ng·h/mL and 12782.0 ng·h/mL and 4088.9 ng·h/mL and 8498.9 ng·h/mL and 12043.9 ng·h/mL and 7713.8 ng·h/mL and 11821.5 ng·h/mL and 12551.6 ng·h/mL and 14254.9 ng·h/mL and 6505.3 ng·h/mL
AUCinf [11]: 11171.4 ng·h/mL and 13417.1 ng·h/mL and 4422.3 ng·h/mL and 12197.9 ng·h/mL and 8201.3 ng·h/mL and 11516.0 ng·h/mL and 12030.1 ng·h/mL and 12760.3 ng·h/mL and 14389.6 ng·h/mL and 6606.2 ng·h/mL
Cl/F [11]: 17.90 L/h and 14.91 L/h and 45.22 L/h and 16.40 L/h and 24.39 L/h and 17.37 L/h and 16.62 L/h and 15.67 L/h and 13.90 L/h and 30.27 L/h
Clast [11]: 11.00 ng/mL and 14.70 ng/mL and 11.20 ng/mL and 34.20 ng/mL and 15.10 ng/mL and 16.70 ng/mL and 21.50 ng/mL and 15.40 ng/mL and 13.60 ng/mL and 10.90 ng/mL and 12.20 ng/mL
Cmax [11]: 1520.00 ng/mL and 1180.00 ng/mL and 267.00 ng/mL and 797.00 ng/mL and 603.00 ng/mL and 1400.00 ng/mL and 914.00 ng/mL and 1240.00 ng/mL and 1230.00 ng/mL and 779.00 ng/mL
Tlast [11]: 36.00 h (3×) and 96.00 h (2×) and 24.00 h and 48.00 h (4×) and 60.00 h
Tmax [11]: 0.50 h and 10.00 h
kel [11]: 0.131 1/h and 0.023 1/h and 0.034 1/h (2×) and 0.098 1/h and 0.114 1/h and 0.074 1/h and 0.065 1/h and 0.081 1/h and 0.121 1/h
t1/2 [11]: 5.30 h and 29.71 h and 20.63 h and 7.07 h and 20.23 h and 6.08 h and 9.39 h and 10.63 h and 8.57 h and 5.73 h
% AUCexp [12]: 7.5%
AUC0-last [12]: 14254.9 ng·h/mL
AUCinf [12]: 14389.6 ng·h/mL
Cl/F [12]: 45.22 L/h
Clast [12]: 34.20 ng/mL
Cmax [12]: 1520.00 ng/mL
Tlast [12]: 96.00 h
Tmax [12]: 10.00 h
kel [12]: 0.131 h⁻¹
t1/2 [12]: 29.71 h
% AUCexp [13]: 2.70%
Cl/F [13]: 21.266 L/h
Clast [13]: 16.045 ng/mL
Tlast [13]: 52.364 h
kel [13]: 0.0775 h⁻¹
% AUCexp [14]: 1.64%
Cl/F [14]: 17.00 L/h
Clast [14]: 14.70 ng/mL
Tlast [14]: 48.00 h
kel [14]: 0.0774 h⁻¹
% AUCexp [15]: 0.8%
AUC0-last [15]: 4088.9 ng·h/mL
AUCinf [15]: 4422.3 ng·h/mL
Cl/F [15]: 13.90 L/h
Clast [15]: 10.90 ng/mL
Cmax [15]: 267.00 ng/mL
Tlast [15]: 24.00 h
Tmax [15]: 0.50 h
kel [15]: 0.023 h⁻¹
t1/2 [15]: 5.30 h
increase of mean AUC0-inf by a high-fat meal compared to the fasted state [16]: ~45%
increase of mean Cmax by a high-fat meal compared to the fasted state [16]: about 60%
